Here are results for one molecule from patent US8394401B2, “Antiobesity or antihyperlipidemic food, feeding stuff or supplement containing lysine” (Ajinomoto Co., Inc., priority 2004, dated 2013).

Common to all, as to assay type: in vivo, C57BL/6J male mice
The nature of experiment [1]: Experimental Example 1: high fat diet-induced obese mice fed a 20% protein energy diet supplemented with lysine hydrochloride for 8 weeks. The text has this:
A high fat diet (dietary energy composition ratio was protein:fat:carbohydrate=17:46:37) was provided for 16 weeks to 30 5-week-old C57BL/6J male mice. At the 16th week, the 30 mice were divided into 3 groups, each consisting of 10 individuals (n=10), and from then, the following diets were provided for 8 weeks to the 3 groups, respectively, (1) 20% protein energy diet (LF; protein:fat:carbohydrate=2:7:1), (2) 20% protein energy diet supplemented with 1% lysine hydrochloride (LF1K; containing 1% lysine hydrochloride (0.8% lysine base)), and (3) 20% protein energy diet supplemented with 3% lysine hydrochloride (LF3K; containing 3% lysine hydrochloride (2.4% lysine base)). Herein, the term “lysine base” refers to free-form lysine. Further, as a nonobese group, a group (LL) was prepared consisting of 10 mice of the same species that were fed with 20% protein energy diet (protein:fat:carbohydrate=2:7:1) from the start of the experiment until the end, i.e., for 24 weeks.
The food intakes were measured and the energy intakes were determined from the energy per g of each test diet. After 8 weeks of the experimental period, the body weight and the total fat weight (sum of epididymal fat, perirenal fat, mesenteric fat, and subcutaneous fat in the periphery of the femoral region) were measured. Statistical analysis was performed using Dunnett's test employing the LF group as the control.

Experiment [2] is described as follows: Experimental Example 2: mice fed 10/20/40/60% protein energy diets with or without 3% lysine hydrochloride for 4 weeks. Conditions: after 4 weeks, vs respective diet without lysine supplementation. The text has this:
The following feeding stuffs were respectively provided for 4 weeks to 8 groups of 9-week-old C57BL/6J male mice, consisting of 10 individuals per group (n=10): (1) 10% protein energy diet (LP; dietary energy composition ratio was protein:fat:carbohydrate=1:1:8), (2) 10% protein energy diet supplemented with lysine hydrochloride (LPK), (3) 20% protein energy diet (LF; protein:fat:carbohydrate=2:1:7), (4) 20% protein energy diet supplemented with lysine hydrochloride (LFK), (5) 40% protein energy diet (MP; protein:fat:carbohydrate =4:1:5), (6) 40% protein energy diet supplemented with lysine hydrochloride (MPK), (7) 60% protein energy diet (HP; protein:fat:carbohydrate=6:1:3), and (8) 60% protein energy diet supplemented with lysine hydrochloride (HPK). The diets, when supplemented with lysine hydrochloride, were added with 3% lysine hydrochloride.
After 4 weeks the experimental period, the body weight, the total fat weight(sum of epididymal fat, perirenal fat, mesenteric fat, and subcutaneous fat in the periphery of the femoral region), and the kidney weight were measured. Statistical analysis was performed using Dunnett's test, employing the respective groups fed with the diets without lysine supplementation as the controls.

The nature of experiment [3]: Experimental Example 3: mice fed high fat feed supplemented with lysine hydrochloride, triglyceride concentration in blood plasma. The text has this:
The following diets were respectively provided for 8 weeks to 4 groups of 9-week-old C57BL/6J male mice, consisting of 10 individuals per group (n=10): (1) 20% protein energy diet (LF; dietary energy composition ratio was protein:fat:carbohydrate=2:7:1), (2) high fat feed (HF; protein:fat:carbohydrate=17:46:37), (3) high fat food supplemented with 1% lysine hydrochloride (HF1K; containing 1% lysine hydrochloride (0.8% lysine base)), and (4) high fat feed supplemented with 3% lysine hydrochloride (HF3K; containing 3% lysine hydrochloride (2.4% lysine base)).
After 8 weeks of the experimental period, the triglyceride concentration in the blood plasma was measured. Statistical analysis was performed using Dunnett's test employing the HF group as the control.

[4] abbreviates: after 8 weeks, 1% or 3% lysine hydrochloride in 20% protein energy diet, vs LF group, Dunnett's test p<0.05, dose-dependent.
Where [5] appears, read: mice, feeding stuff having 20% protein energy, lysine component(s) 0.8 to 3.0 wt % on the dry matter basis.

Turning to `Cl.NCCCC[C@H](N)C(=O)O` [lysine hydrochloride, L-Lysine hydrochloride], in experiment [1] (setting [4]), the “body weight upon the autopsy” value was “significant decrease”; the “total fat weight (sum of epididymal, perirenal, mesenteric and femoral subcutaneous fat)” value was “significant decrease”. Moreover, in experiment [1] (setting [5]), the “increase in body fat” value was “suppressed” and the “increase in body weight” value is “suppressed”. For the same molecule, the total fat weight result in experiment [2] is recorded as “decrease”. In experiment [2] (Dunnett's test p<0.05), the body weight entry was “decrease”. The “increase in the triglyceride concentration in the blood plasma due to intake of the high fat diet” value in experiment [3] (after 8 weeks, 1% or 3% lysine hydrochloride in high fat feed, vs HF group, Dunnett's test p<0.05) is reported as “significantly inhibited”. Also, the “improvement effect for hyperlipidemia” value in experiment [3] (mice, lysine component(s) 0.8 to 3.0 wt % on the dry matter basis) is reported as “improvement effect for hyperlipidemia was exhibited”.
